One test concerns 5-HT2 receptors. Briefly: Antagonism of quipazine-induced head twitches. It is filed as in vivo. The settings on record: ip; head twitches scored within 20 minutes in quipazine-treated animals.
The next test deals with T1, 5-HT2 receptor (Rattus norvegicus, UniProt P14842).
T1 construct: Cerebral cortices were homogenized in 10 volumes of ice cold 0.32M sucrose; from tissue; host or cells: cerebral cortex of male Sprague Dawley rats, membranes
Put plainly: 5-HT2 receptor binding ([3H]-Ketanserine displacement, rat cerebral cortices). Further details: species or system rat (male Sprague Dawley). The following applies: 37° C. for 10 min, read-out: AFFINITY FOR 5-HT2 RECEPTORS Ki. On the procedure: Receptor binding studies on 5-HT1A and 5-HT2 receptors were carried out to determine the affinity of the test compounds.
Rats (male Sprague Dawley, 200-250 g) were used. Cerebral cortices were homogenized in 10 volumes of ice cold 0.32M sucrose. After the centrifugation of the homogenate (1,000×g for 10 min) the supernatant was then recentrifuged at 48,000×g for 15 min. The resulting pellet was resuspended in 10 volumes of 50 mM TRIS buffer (pH 7.4), incubated at 37° C. for 10 min and recentrifuged at 48,000×g for 15 min. The residue was then resuspended in 10 volumes of 50 mM TRIS buffer (pH 7.4).
The tissue was diluted 1:100 (w:v) in 50 mM TRIS buffer (pH 7.4) to have a final protein concentration of about 200 μg/mL.
Displacement experiments were performed by incubating the homogenate (980 μL) in the presence of [^3 H]-Ketanserine (0.5-1.0 nM) (10 μL) and of different concentrations of the test compounds dissolved in the assay buffer (10 μL), at 37° C. for 10 min (final volume: 1 mL).
Non specific binding was determined in the presence of 100 μM Methysergide (10 μL). The separation of [^3 H]-Ketanserine free from that bound to the receptor was carried by the filtration technique (GF/B filters, Whatman). The radioactivity present was counted by liquid scintillation spectrometry.
The affinity values (Ki) for the compounds were obtained by non linear least squares regression analysis on the basis of a one binding site model. These values were corrected on the basis of the radioligand occupancy on the receptors according to the equation: Ki=IC50 /(1+[C]/KD), where [C] and KD represent the concentration and the dissociation constant, respectively, of the radioligand used ([^3 H]-Ketanserine).
The results of some of the compounds of the present invention on the affinity to the 5-HT1A and 5-HT2 receptors are reported in Table 1.

The next test concerns 5-HT1A receptors. Put plainly: Behavioral syndrome: induction of 5-HT1A related syndrome. It is filed as in vivo, rat. Further details: key: sum of symptom scores per rat within 50 min. The settings on record: within 50 min, mean ± s.e. from 4 rats. On the procedure:
The test consists of administering the compound and registering the presence of the above mentioned symptoms within 50 min giving them a score. The results are expressed as the sum of said scores for each rat (Tab. 2).
Values represent mean± s.e. from 4 rats

Another test concerns the target T2, 5-HT1A receptor (Rattus norvegicus, UniProt P19327).
T2 construct: The Hippocampi of these animals were homogenized in 10 volumes of ice cold TRIS buffer; from tissue; host or cells: hippocampus of male Sprague Dawley rats, homogenate
T2 sequence (P19327 1-422): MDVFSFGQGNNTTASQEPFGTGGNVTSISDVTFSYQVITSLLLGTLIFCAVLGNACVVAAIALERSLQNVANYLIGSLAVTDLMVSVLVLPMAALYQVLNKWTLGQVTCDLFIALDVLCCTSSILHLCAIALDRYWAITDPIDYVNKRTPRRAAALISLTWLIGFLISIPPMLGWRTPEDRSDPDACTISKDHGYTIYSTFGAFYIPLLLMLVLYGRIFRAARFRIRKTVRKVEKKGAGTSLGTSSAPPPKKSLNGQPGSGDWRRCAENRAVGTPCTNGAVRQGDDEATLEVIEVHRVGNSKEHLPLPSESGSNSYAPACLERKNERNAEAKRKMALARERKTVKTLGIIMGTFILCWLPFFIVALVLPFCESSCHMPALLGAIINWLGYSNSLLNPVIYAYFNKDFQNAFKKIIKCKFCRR
Put plainly: 5-HT1A receptor binding ([3H]-8-OH-DPAT displacement, rat hippocampi). The settings on record: 30° C. for 15 min, read-out: AFFINITY FOR 5-HT1A RECEPTORS Ki. Further details: species or system rat (male Sprague Dawley). How it is done:
Rats (male Sprague Dawley, 200-250 g) were used. The Hippocampi of these animals were homogenized in 10 volumes of ice cold TRIS buffer (pH 7.4). The homogenate was diluted 1:400 (w:v) in the same buffer to have a final protein concentration of about 200 μg/mL, filtered and incubated at 37° C. for 10 min, before use.
Displacement experiments were performed by incubating the homogenate (980 μL) in the presence of [^3 H]-80H-DPAT (1.0-1,5 nM) (10 μL) and of different concentrations of the test compounds dissolved in the test buffer (10 μL), at 30° C. for 15 min (final volume: 1 mL).
Non specific binding was determined in the presence of 100 μM 5-HT (10 μL). The separation of [^3 H]-8-OH-DPAT, free from that bound to the receptor, was carried out by the filtration technique (GF/B filters, Whatman). The radioactivity present was counted by liquid scintillation spectrometry.
The affinity values (Ki) for the compounds were obtained by a non linear least squares regression analysis on the basis of a one binding site model. The values were corrected on the basis of the radioligand occupancy on the receptors according to the equation: Ki=IC50 /(1+[C]/KD),where [C] and KD represent the concentration and the dissociation constant, respectively, of the radioligand used ([^3 H]-8-OH-DPAT).

T1 sequence (P14842 whole entry): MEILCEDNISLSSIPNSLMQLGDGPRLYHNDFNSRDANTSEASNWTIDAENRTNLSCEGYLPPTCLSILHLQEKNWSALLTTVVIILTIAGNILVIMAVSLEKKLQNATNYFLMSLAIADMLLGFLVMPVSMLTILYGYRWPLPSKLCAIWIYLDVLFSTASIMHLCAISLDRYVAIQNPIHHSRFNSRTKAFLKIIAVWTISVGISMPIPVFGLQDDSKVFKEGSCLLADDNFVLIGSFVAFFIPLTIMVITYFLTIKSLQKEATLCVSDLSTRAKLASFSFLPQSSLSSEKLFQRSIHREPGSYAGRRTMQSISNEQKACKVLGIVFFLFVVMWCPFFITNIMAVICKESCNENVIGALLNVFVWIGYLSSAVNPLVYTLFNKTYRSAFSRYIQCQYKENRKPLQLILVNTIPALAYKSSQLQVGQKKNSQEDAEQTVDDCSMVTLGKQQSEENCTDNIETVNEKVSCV

Regarding `COc1ccccc1N1CCN(CCCCn2c(=O)[nH]c3ccccc32)CC1` [Compound 1, 1-[4-(4-(2-methoxy-phenyl)piperazin-1-yl)butyl]-2,3-dihydro-1H-benzimidazol-2-one], the “DOSE OF COMPOUND (ID50) WHICH ANTAGONIZES THE SYNDROME INDUCED BY QUIPAZINE” value (shortened to “DOSE OF COMPOUND”) with 5-HT2 receptors was 720 μg/kg/ip. In addition, the inhibition constant Ki (commonly a measure of affinity in units of concentration, obtained from inhibition or displacement) at 5-HT2 receptor was 36 nM; on 5-HT1A receptor, 13 nM. Moreover, in the test on 5-HT1A receptors (dose 8 mg/kg/ip), the “INDUCTION OF 5-HT1A RELATED SYNDROME Total score” value amounted to 7.3 ± 0.9.

Consider `O=c1[nH]c2ccccc2n1CCN1CCN(c2cccc(C(F)(F)F)c2)CC1` [Compound 3, 1-[2-(4-(3-trifluoromethyl-phenyl)piperazin-1-yl)ethyl]-2,3-dihydro-1H-benzimidazol-2-one], for which the “DOSE OF COMPOUND” value in the test with 5-HT2 receptors was 498 μg/kg/ip. Besides, the Ki on 5-HT2 receptor amounted to 133 nM; at 5-HT1A receptor, 50 nM. In addition, in the test with 5-HT1A receptors (dose 16 mg/kg/ip), the “INDUCTION OF 5-HT1A RELATED SYNDROME Total score” value was determined as 5.3 ± 1.2.

Take `O=c1[nH]c2ccccc2n1CCCCN1CCN(c2cccc(Cl)c2)CC1` [Compound 4, 1-[4-(4-(3-chlorophenyl)piperazin-1-yl)butyl]-2,3-dihydro-1H-benzimidazol-2-one]: in the test on 5-HT2 receptors, the “DOSE OF COMPOUND” value turned out to be 250 μg/kg/ip. The Ki was 1.4 nM at 5-HT2 receptor and 74 nM on 5-HT1A receptor. The “INDUCTION OF 5-HT1A RELATED SYNDROME Total score” value with 5-HT1A receptors (dose 8 mg/kg/ip) worked out at 0.8 ± 0.5; with 5-HT1A receptors (dose 16 mg/kg/ip), 3.3 ± 1.0.

Consider `O=c1[nH]c2ccccc2n1CCCCN1CCN(c2cccc(C(F)(F)F)c2)CC1` [Compound 8, 1-[4-(4-(3-trifluoromethyl-phenyl)piperazin-1-yl)butyl]-2,3-dihydro-1H -benzimidazol-2-one], for which the “DOSE OF COMPOUND” value in the test with 5-HT2 receptors was found to be 385 μg/kg/ip. Also, the Ki on 5-HT2 receptor amounted to 9.5 nM; at 5-HT1A receptor it was 53 nM. The “INDUCTION OF 5-HT1A RELATED SYNDROME Total score” value in the test with 5-HT1A receptors (dose 8 mg/kg/ip) is on record as 3.0 ± 2.7.

As to `Cn1c(=O)n(CCCCN2CCN(c3cccc(C(F)(F)F)c3)CC2)c2ccccc21` [Compound 9, 1-[4-(4-(3-trifluoromethyl-phenyl)piperazin-1-yl)butyl]-3-methyl-2,3-dihydro-1H-benzimidazol-2-one], the “DOSE OF COMPOUND” value in the test on 5-HT2 receptors is 1720 μg/kg/ip. Moreover, the Ki on 5-HT2 receptor came out at 14 nM; at 5-HT1A receptor, 23 nM. In addition, in the test with 5-HT1A receptors (dose 8 mg/kg/ip), the “INDUCTION OF 5-HT1A RELATED SYNDROME Total score” value is reported as 2.0 ± 0.6.

As to `COc1ccccc1N1CCN(CCCn2c(=O)[nH]c3ccccc32)CC1` [Compound 10, 1-[3-(4-(2-methoxyphenyl)piperazin-1-yl)propyl]-2,3-dihydro-1H-benzimidazol-2-one], the “DOSE OF COMPOUND” value with 5-HT2 receptors is given as 3300 μg/kg/ip. Besides, the Ki was 30 nM on 5-HT2 receptor and 5 nM at 5-HT1A receptor. Besides, the “INDUCTION OF 5-HT1A RELATED SYNDROME Total score” value in the test on 5-HT1A receptors (dose 8 mg/kg/ip) amounted to 3.0 ± 0.4.

As to `CCn1c(=O)n(CCCCCCN2CCN(c3cccc(C(F)(F)F)c3)CC2)c2ccccc21` [Compound 13, 1-[6-(4-(3-trifluoromethyl-phenyl)piperazin-1-yl)hexyl]-3-ethyl-2,3-dihydro-1H-benzimidazol-2-one], in the test on 5-HT2 receptors, the “DOSE OF COMPOUND” value is listed as 8200 μg/kg/ip. Further, the Ki on 5-HT2 receptor and on 5-HT1A receptor was 15 nM in each case. Moreover, the “INDUCTION OF 5-HT1A RELATED SYNDROME Total score” value in the test on 5-HT1A receptors (dose 32 mg/kg/ip) was 3.8 ± 1.3.

Turning to `CC(C)n1c(=O)n(CCCCN2CCN(c3cccc(C(F)(F)F)c3)CC2)c2ccccc21` [Compound 15, 1-[4-(4-(3-trifluoromethyl-phenyl)piperazin-1-yl)butyl]-3-isopropyl-2,3-dihydro-1H-benzimidazol-2-one], the Ki is 20 nM on 5-HT2 receptor and 80 nM on 5-HT1A receptor.

Turning to `Cn1c(=O)n(CCCCN2CCN(c3cccc(Cl)c3)CC2)c2ccccc21` [Compound 17, 1-[4-(4-(3-chlorophenyl)piperazin-1-yl)butyl]-3-methyl-2,3-dihydro-1H-benzimidazol-2-one], the “DOSE OF COMPOUND” value with 5-HT2 receptors stood at 178 μg/kg/ip. The Ki came to 8 nM on 5-HT2 receptor and 30 nM on 5-HT1A receptor. For the same molecule, the “INDUCTION OF 5-HT1A RELATED SYNDROME Total score” value was found to be 1.5 ± 0.7 in the test on 5-HT1A receptors (dose 8 mg/kg/ip) and 10.3 ± 2.9 in the test on 5-HT1A receptors (dose 32 mg/kg/ip).

As to `O=c1[nH]c2ccccc2n1CCCN1CCN(c2cccc(C(F)(F)F)c2)CC1` [Compound 18, 1-[3-(4-(3-trifluoromethyl-phenyl)piperazin-1-yl)propyl]-2,3-dihydro-1H-benzimidazol-2-one], in the test on 5-HT2 receptors, the “DOSE OF COMPOUND” value was determined as 170 μg/kg/ip. Besides, the Ki at 5-HT2 receptor is 4 nM; on 5-HT1A receptor it was 25 nM. Further, the figures for the “INDUCTION OF 5-HT1A RELATED SYNDROME Total score” value with 5-HT1A receptors (dose 16 mg/kg/ip) and in the test with 5-HT1A receptors (dose 32 mg/kg/ip) were 3.8 ± 2.2 and 12.0 ± 3.2, respectively.

Regarding `COc1ccc2[nH]c(=O)n(CCCCN3CCN(c4ccccc4OC)CC3)c2c1` [Compound 24, 6-methoxy-1-[4-(4-(2-methoxyphenyl)piperazin-1-yl)butyl]-2,3-dihydro-1H-benzimidazol-2-one], in the test on 5-HT2 receptors, the “DOSE OF COMPOUND” value came to 102 μg/kg/ip. For the same molecule, the results for the Ki at 5-HT2 receptor and at 5-HT1A receptor were 65 nM and 12 nM, respectively. Further, the “INDUCTION OF 5-HT1A RELATED SYNDROME Total score” value in the test on 5-HT1A receptors (dose 8 mg/kg/ip) is on record as 4.3 ± 1.1.

Turning to `COc1ccc2[nH]c(=O)n(CCCCN3CCN(c4cccc(C(F)(F)F)c4)CC3)c2c1` [Compound 25, 6-methoxy-1-[4-(4-(3-trifluoromethyl-phenyl)piperazin-1-yl)butyl]-2,3-dihydro-1H-benzimidazol-2-one], in the test with 5-HT2 receptors, the “DOSE OF COMPOUND” value worked out at 1420 μg/kg/ip. Further, the values for the Ki at 5-HT2 receptor and at 5-HT1A receptor were 25 nM and 100 nM, respectively. For the same molecule, the “INDUCTION OF 5-HT1A RELATED SYNDROME Total score” value with 5-HT1A receptors (dose 8 mg/kg/ip) is 2.0 ± 1.2.

`O=c1[nH]c2ccccc2n1CCCCN1CCN(c2cccc3ccccc23)CC1` [Compound 30, 1-[4-(4-(1-naphtyl)piperazin-1-yl)butyl]-2,3-dihydro-1H-benzimidazol-2-one]: the values for the Ki at 5-HT2 receptor and at 5-HT1A receptor were 7 nM and 10 nM, respectively.

These data come from patent publication US5576318A, “Benzimidazolone derivatives” (Boehringer Ingelheim Italia S.p.A., priority 1991, dated 1996).
